{"source": "BindingDB's records for doi:10.1021/acs.jmedchem.5b00261", "about": "(Genentech, 2015)", "test": "Inhibition of LRRK2 G2019S mutant-induced neuronal toxicity in human cortical neurons"}
{"smiles": "COc1cc(N2CCOCC2)ccc1Nc1ncc(F)c(Nc2ccccc2NS(C)(=O)=O)n1", "values": [{"measurement": "EC50", "value": 4, "unit": "nM"}]}
